Laboratory results published in patent US20080154102A1, “Intraoperative imaging methods” (priority 2006, published 2008).
“Also recorded” adds a separate entry of the source. Each block holds one compound with its values, some of them ahead of it.

Tests used:
[1] = system: thoracic duct; experiment: Thoracic duct visualization in the rat model; type: in vivo; settings: 50 μL of 10 μM into mesenteric lymph node, 5 minutes
Experimental: Additional experiments on thoracic duct visualization in the rat model were also performed using other NIR fluorescent agents.

[2] = Absorbance spectrometry; type: physicochemical; settings: for Peak Absorbance in PBS: Table 2
Experimental: (§1) Absorbance spectrometry was performed with a 1-cm path length quartz cuvette in a USB2000 fiber-optic spectrometer (Ocean Optics, Dunedin, Fla.). Fluorescence spectrometry was performed with a 1-cm path length, 1.5 mL disposable methacrylate cuvette (Fisher Scientific, Hampton, N.H.) in a HR2000 fiber-optic spectrometer, and CUV-ALL-UV four-way cuvette holder (Ocean Optics), using a 655 nm laser diode light source (OPCOM O.E. Inc., Xiamen, China) with maximum output less than 5 mW. Data acquisition was performed with a computer using an OOI-Base32 spectrometer operating software package (Ocean Optics). The spectral range of the USB2000-FL spectrometer was from 350 to 1000 nm with spectral resolution of 7.6 nm, and that of the HR2000 spectrometer was from 200 to 1100 nm with a spectral resolution of 6.7 nm.

[3] = system: ureters; experiment: Ureteral mapping in rats; type: in vivo
Experimental: In rats, ureters were visualized by intravenous injection of 50 μL of CW800 CA at 10, 20, 50 and 100 μM to quantify the best concentration for […]. Fluorescence intensities of ureters, kidney, and abdominal wall were measured at 3, 5, 10, 20, and 30 min following injection.

[4] = system: common bile duct; experiment: Cholangiographic imaging with CW800-CA in pigs; type: in vivo; settings: for detection of beads inserted into CBD: 5 mL of 50 μM intravenously, beads 2.5 and 3.5 mm
Experimental: Based on the results obtained in rats, CW800-CA was chosen as the contrast agent for a large animal model approaching the size of human. In 7 anesthetized pigs, 5 mL of 100 μM CW800-CA (15 μg/kg total) was injected into portal vein (N=3), or 5 mL of 50 μM (N=2) or 100 μM (N=2) of CW800-CA (7.5, and 15 μg/kg total, respectively) were injected intravenously.
Beads of 2.5 or 3.5 mm in diameter were inserted into common bile duct via papilla vateri by duodenostomy (N=2) to simulate blockage of the CBD.

[5] = system: common bile duct; experiment: Cholangiographic imaging with ICG, IR-786 and CW800-CA in rats; type: in vivo
Experimental: 50 μL of 100 μM IR-786 or CW800-CA (15 μg/kg), or 1 mM ICG (150 μg/kg), was injected into portal vein in anesthetized rats. A simultaneous color video/NIR fluorescence intraoperative imaging system was employed for quantification of NIR fluorescence images. In another 32 rats, bile duct was visualized by intravenous (N=16) or portal vein injection (N=16) of 50 μL of CW800-CA at 10, 20, 50 and 100 μM to quantify the best concentration for bile duct imaging. Fluorescence intensities of bile duct, liver (right lobe), and pancreas were measured at 3, 5, 10, 20, and 30 min following injection.

[6] = Fluorescence spectrometry and fluorescence quantum yield; type: physicochemical
[7] = Metabolism of CW800-CA, HPLC/mass spectrometry of urine samples; type: in vivo, pigs
Source text: As described herein, ureter visualization can usually be obtained rapidly, even in a few minutes following injection. […] To clarify the point, an HPLC/mass spectrometry (using electrospray/time-of-flight (ES-TOF) method has been made.
Urine samples were collected from pigs (N=5), and analyzed. The dye usually can be pinpointed with a fluorescence detector equipped with ES-TOF mass spectrometry. Urine samples were first passed over a 6,000 Da cutoff gel-filtration column to remove contaminating proteins, and eluate less than 6,000 Da was analyzed on a C18 column. Buffer A was water, BioPlus (American Bioanalytical, Natick, Mass.) and Buffer B was acetonitrile. Using a gradient of 0 to 50% Buffer B over 30 min, urine samples were resolved on a 4.6×150 mm Symmetry C18 column (Waters) at a flow rate of 1 ml per minute with eluate fed into a Waters LCT ES-TOF mass spectrometer. Ion mode was set to electrospray negative (ES−), and cone and capillary voltages were set at 30 and 3000 (V), respectively. Desolvation and source temperature were set at 350, 140 (° C.), respectively. Data were analyzed with Masslynx (Waters) software.

[8] = cited from earlier work
[9] = Excretion to bile / clearance after injection; type: in vivo
[10] = Fluorescence spectrometry and fluorescence quantum yield; type: physicochemical; settings: for Peak Fluorescence in PBS / Quantum Yield in PBS: Table 2
Experimental: as §1
Fluorescence intensity was measured in each solvent (PBS, FBS, and methanol) at each concentration of the dye to determine the effect of the methylene blue concentration and solvents on total fluorescence yield. Fluorescence quantum yields of methylene blue in PBS, FBS, and methanol were calculated using oxazine725 in ethylene glycol (quantum yield: 19%) as a calibration standard, under the conditions of matched absorbance of methylene blue in each solvent.

[11] = system: common bile duct, vasculature, coronary artery, myocardium; experiment: Multi-wavelength fluorescence imaging with MB and ICG; type: in vivo, pigs; settings: pig
Experimental: Therefore, MB was used to visualize CBD in an anesthetized pig, while ICG was used to visualize vasculature.
To evaluate the possibility of multi-wavelength fluorescent imaging, ICG and methylene blue were used.
1 mg/kg methylene blue IV injection was followed 30 min after by 0.03 mg/kg ICG IV injection. […] NIR camera exposure time was 100 msec.
Next, one of the diagonal branches of the coronary artery (D2) was clamped (white arrow), and then 1 mg/kg of methylene blue was injected intravenously; see the second row of images. Just after releasing the clamp, 0.03 mg/kg ICG was injected intravenously. […] The right-most image in the second row was created by merging the image of the coronary arteriography using methylene blue at clamping D2 and the image using ICG after declamping D2.

[12] = system: perforating arteries and veins; experiment: NIR imaging of skin perforating vessels for flap surgery; type: in vivo, Yorkshire pig; settings: 35 kg pig, 0.5 mg (14 μg/kg) intravenously
Experimental: To evaluate the usefulness of NIR agents for such methods, 0.5 mg (14 μg/kg) indocyanine green (ICG) was injected intravenously into a 35 kg Yorkshire pig, and the skin was imaged as described herein.

[13] = rats, portal vein injection, listed as CW800CA

Peak Absorbance in PBS ([2]; in PBS): 775 nm
emission of CW800-CA [6]: ≈ 800 nm
Peak Fluorescence in PBS ([10]; in PBS): 796 nm
Quantum Yield in PBS ([10]; in PBS): 9%
SMILES: CC1(C)C(/C=C/C2=C(Oc3ccc(S(=O)(=O)O)cc3)C(=C/C=C3/N(CCCCS(=O)(=O)O)c4ccc(S(=O)(=O)[O-])cc4C3(C)C)/CCC2)=[N+](CCCCCC(=O)O)c2ccc(S(=O)(=O)O)cc21 [CW800-CA]
thoracic duct in the fluorescence image [1]: clearly visualized in the fluorescence image
visualization of ureters, in words ([3]; rat): excellent visualization of ureters
injected concentration showing the best SBR (ureter) ([3]; rats, 50 μL (7.5 μg/kg)): 50 µM
time of peak performance for ureter visualization ([3]; rats, every concentration): approximately 10 minutes
time at which ureters could be identified ([3]; rats, intravenous injection): 3 min
detection of beads inserted into CBD [4]: detected completely in 2 of 2 pigs
detection of beads inserted into CBD ([4]; listed as CW800CA): All beads could be detected perfectly in each trial
time until visualization of the CBD after dye injection ([4]; portal vein or intravenous injection): 7 to 10 min
selectivity among three contrast agents for bile duct imaging ([5]; compared with ICG and IR-786): most selective
dose required for CBD detection, portal vein injection ([5]; portal vein injection): 3 to 15 µg/kg
injected concentration showing the best SBR (CBD) ([5]; rats, 50 μL (7.5 μg/kg)): 50 µM
time of peak performance for CBD visualization ([5]; rats, every concentration): approximately 10 minutes
time at which CBD could be identified ([5]; rats, intravenous or portal injection): 3 min
dye stacking to the liver ([5]; rats, portal vein injection): no significant dye stacking to the liver
signal to background ratio (SBR) of CBD, in words ([5]; rats, portal vein injection): excellent signal to background ratio
dye stacking to the liver [5, 13]: no dye stacking in the liver
signal to background ratio (SBR) of CBD, in words [5, 13]: higher SBR than the other two
dose required for CBD detection, systemic intravenous injection ([5]; systemic intravenous injection): 7.5 to 15 µg/kg
form in which the dye is excreted ([7]; HPLC/ES-TOF mass spectrometry): excreted into the bile in a substantially unmetabolized form; also recorded: excreted into bile as an unmetabolized form
fluorescence chromatograph after excretion into urine ([7]; HPLC/mass spectrometry): essentially a single peak with the expected mass spectrum
concentration above which significant quenching of fluorescence occurs ([8]; Ohnishi et al.): above 10 μM
clearance after intravenous injection [9]: rapidly cleared by: 1) the liver and excreted into bile and 2) the kidneys and excreted into urine

Excitation Wavelength Maximum, (FBS) ([2]; in FBS): 800 nm
Molar Extinction Coefficient, (FBS) ([2]; in FBS): 168,000 M^−1cm^−1
molar extinction coefficient in FBS ([2]; in FBS, in M-1cm-1 (unit assumed)): 168,000
Excitation Wavelength Maximum, PBS ([2]; in PBS): 779 nm
Peak Absorbance in PBS ([2]; in PBS): 779 nm
Emission Wavelength Maximum, (FBS) ([10]; in FBS): 811 nm
Fluorescence Quantum Yield, (FBS) ([10]; in FBS): 9%
ICG fluorescence relative to methylene blue fluorescence ([10]; in FBS, from extinction coefficient and quantum yield): about 8 times
Emission Wavelength Maximum, PBS ([10]; in PBS): 806 nm
Fluorescence Quantum Yield, PBS ([10]; in PBS): 1%
Peak Fluorescence in PBS ([10]; in PBS): 806 nm
Quantum Yield in PBS ([10]; in PBS): 1%
SMILES: CC1(C)C(/C=C/C=C/C=C/C=C2\N(CCCCS(=O)(=O)O)c3ccc4ccccc4c3C2(C)C)=[N+](CCCCS(=O)(=O)[O-])c2ccc3ccccc3c21 [ICG, indocyanine green]
distribution in myocardium after arteriography [11]: evenly distributed over the entire myocardium
detection of diagonal branch D2 after releasing the clamp ([11]; 0.03 mg/kg intravenously): detected clearly
structure shown in two-channel NIR imaging ([11]; ICG 800 nm, MB 700 nm): highlights blood vessels
thoracic duct in the fluorescence image [1]: clearly visualized in the fluorescence image
dye stacking to the liver ([5]; rats, portal vein injection): significant dye stacking to the liver
clearance after intravenous injection [9]: rapidly cleared from the blood by the liver, but is only inefficiently transported into bile
identification of perforating arteries and veins [12]: can be identified

Peak Absorbance in PBS ([2]; in PBS): 768 nm
Peak Fluorescence in PBS ([10]; in PBS): 803 nm
Quantum Yield in PBS ([10]; in PBS): 3.3%
SMILES: CN1C(=CC=C2CCCC(C=CC3=[N+](C)c4ccccc4C3(C)C)=C2Cl)C(C)(C)c2ccccc21.[O-][Cl+3]([O-])([O-])[O-] [IR-786]
dye stacking to the liver ([5]; rats, portal vein injection): significant dye stacking to the liver
clearance after intravenous injection [9]: rapidly extracted into many tissues in the body, especially the liver, and is inefficiently transported into bile

SMILES: CCN(CC)c1ccc2nc3ccc(=[N+](CC)CC)cc-3oc2c1.[O-][Cl+3]([O-])([O-])[O-] [oxazine725]
quantum yield of calibration standard ([8]; in ethylene glycol): 19%
